Experimental data published in article PMC5078989, “Targeted inhibition of the COP9 signalosome for treatment of cancer” (Nature Communications, 2016).

Tested on: panel of cancer cell lines
Assay: Cell viability (CellTiter-Glo) dose-response across cancer cell line panel;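 for EC50: after 72 h compound incubation with CellTiter-Glo ATP readout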
Format: cell-based, human
Settings: for EC50: Homo sapiens
Text: Next, we explored the effect of CSN5 inhibition on the viability of cancer cells. To obtain a comprehensive picture, we generated dose–response curves with a CSN5 inhibitor across more than 500 cancer cell lines in a previously described standardized setting[47] (Supplementary Data 1).
A standardized CellTiter-Glo Assay (Promega #G7570) based on the quantification of ATP was applied according to the manufacturer's protocol to measure the amount of viable cells in culture. In brief, cells were seeded into 384-well plates at optimal density for each cell line. After 4 h, compounds were added at different concentrations in growth medium and incubated for another 72 h in a humidifying chamber at 37 °C and 5% CO2. […] EC50 values were calculated from the plot of percentage of inhibition versus inhibitor concentration using the nonlinear regression analysis software Origin 7.5SR6 (OriginLab Corp.).

EC50 (SNU-685): 720 nM | EC50 (SNU-738): 410 nM | EC50 (SNU-761): 874 nM | EC50 (SNU-886, SNU-886): 42.5 nM | EC50 (SNU-1040): 159 nM | EC50 (SNU-1079): 386 nM | EC50 (SNU-C1, SNU-C1): 1630 nM | EC50 (SNU-C2A): 6400 nM | EC50 (SNU-C4, SNU-C4): 1110 nM | EC50 (SNU-C5): 589 nM | EC50 (SR-786, SR-786): 861 nM | EC50 (SU-DHL10, SU-DHL-10): 204 nM | EC50 (SU-DHL-4, SU-DHL-4): 76.1 nM | EC50 (SU-DHL-5, SU-DHL-5): 101 nM | EC50 (SU-DHL-6, SU-DHL-6): 248 nM | EC50 (SU-DHL-8, SU-DHL-8): 155 nM | EC50 (SU.86.86, SU.86.86): 777 nM | EC50 (SUIT-2, SUIT-2): 184 nM | EC50 (SUM52PE): 109 nM | EC50 (SUM149PT): 611 nM | EC50 (SUM185PE): 63.7 nM | EC50 (SUM190PT): 98.9 nM | EC50 (SUM-159-PT, SUM159PT): 6930 nM | EC50 (SUP-T1, SUP-T1): 154 nM | EC50 (SW48, SW48): 145 nM | EC50 (SW480, SW480): 399 nM | EC50 (SW900, SW 900): 1520 nM | EC50 (SW982, SW982): 805 nM | EC50 (SW1088, SW 1088): > 30000 nM | EC50 (SW1271, SW 1271): 523 nM | EC50 (SW1353, SW 1353): 2900 nM | EC50 (SW1573, SW 1573): 224 nM | EC50 (SW1783, SW 1783): > 30000 nM | EC50 (SW-403, SW403): 803 nM | EC50 (SW-620, SW620): 1500 nM | EC50 (SYO-1): 281 nM | EC50 (Sq-1): 164 nM | EC50 (T3M4, T3M-4): 459 nM | EC50 (T47D, T-47D): 315 nM | EC50 (TALL-1, TALL-1): 446 nM | EC50 (TANOUE): 57.9 nM | EC50 (TC-71, TC-71): 159 nM | EC50 (TCC-PAN2): 1300 nM | EC50 (TE-1, TE-1): 1700 nM | EC50 (TE-6, TE-6): 422 nM | EC50 (TE-11, TE-11): 247 nM | EC50 (TE-14): 339 nM | EC50 (TF-1, TF-1): 1710 nM | EC50 (THP-1, THP-1): 175 nM | EC50 (TT2609-C02): 334 nM | EC50 (TYK-nu): 156 nM | EC50 (U266B1): 827 nM | EC50 (U-87 MG): 447 nM | EC50 (U-118-MG, U-118 MG): 541 nM | EC50 (U-251, U-251 MG): 1690 nM | EC50 (U-937, U-937): 103 nM | EC50 (UACC-62, UACC-62): 192 nM | EC50 (UACC-257, UACC-257): 650 nM | EC50 (UCH1, UCH-1): 5210 nM | EC50 (UKE1, UKE1): 383 nM | EC50 (VM-CUB-1, VM-CUB1): 829 nM | EC50 (VMRC-LCD): 288 nM | EC50 (VMRC-RCW): 1230 nM | EC50 (WM 266-4, WM-266-4): 465 nM | EC50 (WM983B, WM-983B): 201 nM | EC50 (WM-88): 510 nM | EC50 (WM-115, WM-115): 1410 nM | EC50 (WM-1799, WM1799): 154 nM | EC50 (WSU-WM): 185 nM | EC50 (YAPC): 205 nM | EC50 (ZR-75-1, ZR-75-1): 353 nM
SMILES: NS(=O)(=O)OC[C@@H]1C[C@@H](n2ccc3c(N[C@H]4CCc5ccccc54)ncnc32)C[C@@H]1O [MLN4924]
AMAX (Hs 695T): -54.4409 | AMAX (Hs 936.T): -81.1628 | AMAX (HuG1-N): -47.6265 | AMAX (HuH-7): -61.9045 | AMAX (IGR-37): -85.5177 | AMAX (IGROV1): -85.9932 | AMAX (IPC-298): -80.8233 | AMAX (Ishikawa): -91.0654 | AMAX (J82): -49.0789 | AMAX (JHH-4): -91.4007 | AMAX (JHOS-2): -63.2509 | AMAX (JHUEM-2): -75.0485 | AMAX (JHUEM-3): -28.2496 | AMAX (JL-1): -61.5427 | AMAX (JVM-2): -91.7997 | AMAX (KARPAS-422): -93.0088 | AMAX (KATO III): -44.0826 | AMAX (KBM-7): -98.5101 | AMAX (KE-97): -95.9856 | AMAX (KMRC-1): -84.1268 | AMAX (KP4): -71.8264 | AMAX (KP-1N): -53.1172 | AMAX (KP-2): -64.2974 | AMAX (KP-3): -63.0208 | AMAX (KU-19-19): -84.2248 | AMAX (KYSE-150): -87.7498 | AMAX (KYSE-180): -85.8737 | AMAX (Kasumi3): -97.5892 | AMAX (L-363): -96.7272 | AMAX (LC2/ad): -74.576 | AMAX (MM138): -73.7519 | AMAX (MM415): -81.4932 | AMAX (MM426): -75.6165 | AMAX (MM485): -69.3744 | AMAX (MM537): -69.6122 | AMAX (MOLT-16): -97.3083 | AMAX (MeWo): -75.2037 | AMAX (NB-1): -99.4488 | AMAX (NCI-H82): -97.4475 | AMAX (NCI-H146): -90.9498 | AMAX (NCI-H322): -80.9979 | AMAX (NCI-H441): -47.4873 | AMAX (NCI-H647): -73.4893 | AMAX (NCI-H841): -87.0207 | AMAX (NCI-H1373): -83.9593 | AMAX (NCI-H1568): -95.718 | AMAX (NCI-H1755): -73.6315 | AMAX (NCI-H2023): -96.0734 | AMAX (NCI-H2087): -83.0999 | AMAX (NCI-H2110): -89.6657 | AMAX (NCI-H2452): -41.6484 | AMAX (NCI-N87): -74.5636 | AMAX (NO36): -67.5733 | AMAX (OUMS-23): -78.9353 | AMAX (OV56): -95.0768 | AMAX (P3HR-1): -93.355 | AMAX (P12-ICHIKAWA): -96.3019 | AMAX (PA-TU-8988T): -81.7224 | AMAX (PANC-1): -64.2148 | AMAX (PC-3): -79.4027 | AMAX (PE/CA-PJ34 (clone C12)): -79.361 | AMAX (PE/CA-PJ49): -67.4836 | AMAX (PF-382): -98.4673 | AMAX (PL-21): -95.522 | AMAX (Panc 03.27): -88.9221 | AMAX (Panc 04.03): -72.0017 | AMAX (Panc 10.05): -85.7173 | AMAX (RD-ES): -97.5942 | AMAX (RT-112): -90.3953 | AMAX (SEM): -97.7133 | AMAX (SK-ES-1): -95.0336 | AMAX (SK-MEL-3): -81.0459 | AMAX (SW480): -74.5488 | AMAX (VMRC-RCW): -71.6057
